Here are results for eleven molecules from the SangsterLogP compilation.

One may read the logP as a log measure of how a compound divides between an organic and an aqueous phase.

On to `C=C(C)C(=O)OC`, for which the logP amounted to 0.79.
As for `C=C(C)C(=O)OCC(O)COc1cccc2ccccc12` (stereo unspecified), the figure is 3.31; as for `C=C(C)C(=O)OCC(C)(O)COc1cccc2ccccc12` (stereo unspecified), 3.77; as for `C=C(C)C(=O)OCC(CC)CCCC` (stereo unspecified), 4.67.
In the case of `C=C(C)C(=O)OCC(O)COc1ccccc1` (stereo unspecified) it was 2.18; in that of `Cc1ccc(N(CCO)CCO)cc1`, 1.09; in that of `C=C(C)C(=O)OCCOCCOCCOC(=O)C(=C)C`, 1.88.
In the case of `C=C(C)C(=O)OCC` it was 1.5; in that of `C=Cc1ccc(C(=O)O)cc1`, 2.18.
Molecule `O=C(OOC(=O)c1ccccc1)c1ccccc1` registered a logP of 3.46.
In the case of `COC(C(=O)c1ccccc1)c1ccccc1` (stereo unspecified) it was 1.38.
